Laboratory results published in US6517853B1, “Process for preparing a crystal suspension” (Syngenta Limited, priority 1999, dated 2003).

What was measured:
[1] = ΔH/RT value (heat of fusion by differential scanning calorimetry divided by R and melting point in K); type: physicochemical
Procedure: The value ΔH/RT is a well understood expression which means the enthalpy (heat) of fusion of a compound (ΔH in kJmol^−1) at the normal melting point of the compound divided by the molar gas constant (R, where R is 8.31451 Jmol^−1K^−1) and the melting point of the compound measured on the absolute or Kelvin scale (in °K). Thus, for example, the ΔH/RT value of octadecane, which has a melting point of 28.2° C. and a heat of fusion of 61.39 kJmol^−1 (see the CRC Handbook of Chemistry and Physics, [1996-1997], 77th Edition. 6-138) is calculated as follows: […]
The heat of fusion of a compound (ΔH) may be measured by differential scanning calorimetry. A suitable method is described by McNaughton, J. L. and Mortimer, C. T. in IRS: Physical Chemistry Series 2, Butterworth, London 1975, Vol 10; subsequently reprinted by Perkin-Elmer Corpn. Norwalk, Conn., USA.

[2] = Optical microscope image analysis of droplet / crystal size in aqueous emulsion or dispersion; type: physicochemical; conditions: for crystal size immediately after sonication: all four samples (6 and 2 lhr^−1); for droplet size of hot emulsion: before cooling
Description: (§1) A small sample of the cooled sonicated emulsion was transferred using a capillary tube to a microscope slide and was protected with a glass cover slip. The slide was viewed using transmitted light or cross-polarised light (Zeiss microscope) and an image recorded on a calibrated micrograph. The micrograph provides information as to the size (μm), shape and degree of crystallinity of the droplets or crystals.

[3] = Storage of crystalline dispersion, Ostwald ripening (crystal growth) under optical microscope; type: physicochemical; conditions: 1% w/w sonicated dispersion, after one week
Description: as §1
The number of spheres/particles in the final dispersion was similar to the number of droplets in the original hot emulsion which indicated nucleation had occurred preferentially in the droplets.

[4] = CRC Handbook of Chemistry and Physics, 77th Edition; cited from earlier work
[5] = enthalpy of fusion at normal melting point / (R × melting point in K)
[6] = 1% w/w aqueous dispersion, cooled to 20° C., continuous sonication 500 w
[7] = 1% w/w in aqueous Mowiol 18-88, emulsified five minutes by high shear mixer
[8] = 1% w/w aqueous dispersion, sonicated, higher flow (6 lhr^−1)

For CCCCNC(=O)OCC#CI [IPBC, 3-iodo-2-propynyl butyl carbamate], the ΔH/RT [1, 5] was 9.25, the “crystal size immediately after sonication” value [2, 6] was under 10 μm and the “droplet size of hot emulsion” value [2, 7] was at most 10 μm. The “Ostwald ripening (crystal growth) of sonicated dispersion” value [3] was “no sign of “Ostwäld” ripening”.

With C=C1C2CC[C@@H](C2)C1(C)C [camphene, (1S)-2,2-dimethyl-3-methylenebicyclo[2.2.1]heptane] the ΔH/RT [1, 5] was 1.15, the “size of plates after sonication” value [2, 8] was 30 μm and the “size of small needles after sonication” value [2, 8] was 2 μm.

For CCCCCCCCCCCCCCCCCC [octadecane], the ΔH/RT ([1]; calculated from CRC Handbook melting point 28.2° C. and heat of fusion) is listed as 24.5 and the heat of fusion [4] is listed as 61.39 kJmol^−1.

With “α-methyl-4-(2-methylpropyl)benzene acetic acid [ibuprofen]” the ΔH/RT [1, 5] was 9.33, the “crystal size immediately after sonication” value [2, 6] was under 10 μm and the “droplet size of hot emulsion” value [2, 7] was at most 10 μm. The “crystal size (twinned crystals) without sonication” value ([2]; 2% aqueous dispersion, cooled without sonication, equilibrated for 18 hrs) was 100-200 μm, the “crystal size (crystalline spheres) immediately after sonication” value ([2]; 20% w/w aqueous dispersion, cooled to 20° C., continuous sonication 500 w, all four samples) was under 10 μm and the “droplet size of hot emulsion” value ([2]; 20% w/w in aqueous Mowiol 18-88, emulsified five minutes by high shear mixer) was at most 10 μm.
